Measurements from US20140162955A1, “Antagonizing Heparin With Salicylamide Compounds And Histamine Blocking Agents” (CELLCEUTIX CORPORATION, priority 2012, published 2014).

Test system: anesthetized rats
Assay: Cardiovascular effects (blood pressure, heart rate) in anesthetized rats pretreated with heparin and histamine antagonists or NO synthase inhibitor
Format: in vivo, rat
Conditions: for blocking of blood pressure reductions caused by IV infusion of Compound 100: pretreatment at T = -15 minutes, Compound 100 at 8 and 16 mg/kg, anesthetized rat
Protocol: A purpose of this study was to evaluate the role of histamine or nitric oxide (NO) on the hemodynamic effects of Compound 100 administered by a 10 minute IV infusion in rats by pretreatment with an H1 receptor blocker (diphenhydramine; DPH), an H2 receptor blocker (cimetidine; CIM), or an NO synthase inhibitor (L-NAME). Surgically prepared animals (jugular vein catheter for test article administration and carotid artery catheter for blood pressure/heart rate measurement) were purchased from Charles River Laboratories, Raleigh, N.C. Animals were anesthetized on the day of experimentation with isoflurane (1.8-4%). Blood pressure and heart rate data were collected on a Grass Polygraph recorder. Groups of three or four animals were administered two pretreatments followed by the administration of the vehicle or Compound 100. Dose groups are described in Table 1. Treatment 1 was administered at T=−15 minutes as an intravenous administration of saline, cimetidine or L-Name, a subcutaneous dose of diphenhydramine or a combination of diphenhydramine (s.c.) and cimetidine (i.v.). Saline or heparin were administered at T=−3 minutes by intravenous administration (Treatment 2). Treatment 3 was Compound 100 or sterile water (vehicle) which was administered by a 10 minute intravenous infusion. Blood pressure and heart rate were recorded prior to Treatment 1, 5 and 10 minutes after Treatment 1, 2 minutes following Treatment 2, and at 1, 15, 25, 40, and 70 minutes following Treatment 3. Each recording interval was approximately 1 minute long. [table]

Row | Compound | blocking of blood pressure reductions caused by IV infusion of Compound 100 | blood pressure following administration of L-NAME, prior to dosing of test agent (L-NAME 100 mg/kg i.v., before Compound 100)
1 | CN(C)CCOC(c1ccccc1)c1ccccc1 [diphenhydramine] | effectively blocks blood pressure reductions | 
2 | COC(=O)[C@@H](N)CCCNC(=N)N[N+](=O)[O-] [L-NAME] | ineffective at both Compound 100 dosages | increases in blood pressure were evident
3 | CN/C(=N/CCSCc1nc[nH]c1C)NC#N [Cimetidine, cimetidine] | only prevented blood pressure reductions at the 8 mg/kg dose | 
